In PubChem BioAssay AID328 (DTP/NCI, 2004):
“And” between values parts separate entries of the source, which are not always exact repeats. Equal values may be shown once. Inconclusive results and toxic doses are left out.

System: BDF1 mice, P388 leukemia ip, median survival T/C
Test: NCI In Vivo Anticancer Drug Screen. Data for tumor model P388 Leukemia (intraperitoneal) in B6D2F1 (BDF1) mice
Settings: endpoint: median survival time, higher = longer survival
Protocol: The antitumor activity of compounds was measured in mice bearing transplantable tumors. Survival or tumor size were measured and the results are expressed as the measurement made in the treated group (T) divided by the measurement made in the vehicle treated control group (C). The tumor model used in this assay is P388 Leukemia (intraperitoneal) in B6D2F1 (BDF1) mice

[1] = dose: 100.0 mg/kg/injection, schedule: Q01DX009 (ip), vehicle: saline with Tween-80
[2] = dose: 100.0 mg/kg/injection, schedule: Q04DX003 (ip), vehicle: saline with Tween-80
[3] = dose: 200.0 mg/kg/injection, schedule: Q01DX009 (ip), vehicle: saline with Tween-80
[4] = dose: 200.0 mg/kg/injection, schedule: Q04DX003 (ip), vehicle: saline with Tween-80
[5] = dose: 400.0 mg/kg/injection, schedule: Q01DX009 (ip), vehicle: saline with Tween-80
[6] = dose: 400.0 mg/kg/injection, schedule: Q04DX003 (ip), vehicle: saline with Tween-80
[7] = dose: 50.0 mg/kg/injection, schedule: Q01DX009 (ip), vehicle: saline with Tween-80
[8] = dose: 2.5 mg/kg/injection, schedule: Q01DX009 (ip), vehicle: Klucel (hydroxypropylcellulose) (HPC)
[9] = dose: 20.0 mg/kg/injection, schedule: Q01DX009 (ip), vehicle: Klucel (hydroxypropylcellulose) (HPC)
[10] = dose: 25.0 mg/kg/injection, schedule: Q01DX009 (ip), vehicle: saline with Tween-80

COC(=O)C(C)C(C)=O (configuration not stated)
T/C (dose: 100.0 mg/kg/injection, schedule: Q04DX003 (sc), vehicle: olive oil, sesame oil, peanut oil): 100 % of control
T/C (dose: 200.0 mg/kg/injection, schedule: Q04DX003 (sc), vehicle: olive oil, sesame oil, peanut oil): 104 % of control
T/C (dose: 400.0 mg/kg/injection, schedule: Q04DX003 (sc), vehicle: olive oil, sesame oil, peanut oil): 100 % of control

COC(=O)C(NC(=O)OCc1ccccc1)C(=O)OC
T/C [1]: 104 % of control
T/C [2]: 104 % of control
T/C [3]: 95 % of control
T/C [4]: 109 % of control
T/C [5]: 95 % of control
T/C [6]: 100 % of control

COC(=O)c1cccn1C(=O)c1c2nc3c(C(=O)n4cccc4C(=O)OC)ccc(C)c3oc-2c(C)c(=O)c1N
T/C [2]: 101 % of control
T/C [4]: 102 % of control
T/C [6]: 103 % of control

OCC(F)(F)C(F)(F)C(F)(F)F
T/C [1]: 100 % of control
T/C [3]: 104 % of control
T/C [5]: 109 % of control

CCS(=O)C(C)(C)C (configuration not stated)
T/C [7]: 102 % of control
T/C [1]: 102 % of control
T/C [3]: 102 % of control

CCCCCCCCCCCCCCCC(=O)OCCCCCCCCCC
T/C (dose: 25.0 mg/kg/injection, schedule: Q04DX003 (ip), vehicle: saline with Tween-80): 100 % of control
T/C (dose: 50.0 mg/kg/injection, schedule: Q04DX003 (ip), vehicle: saline with Tween-80): 100 % of control
T/C [2]: 100 % of control

O=C(/C=C/c1ccc(OCc2ccccc2)cc1)c1ccccc1Br
T/C [7]: 96 % of control
T/C [1]: 107 % of control
T/C [3]: 105 % of control

O=C(CC(=O)C(F)(F)F)c1ccc2c(c1)Cc1ccccc1-2
T/C [2]: 124 % of control
T/C [4]: 111 % of control

C[C@]12CC[C@H](O)C[C@@]1(O)CC[C@@H]1[C@@H]2CC[C@]2(C)[C@@H](c3ccc(=O)oc3)CC[C@]12O
T/C (dose: 1.25 mg/kg/injection, schedule: Q01DX009 (ip), vehicle: Klucel (hydroxypropylcellulose) (HPC)): 93 % of control
T/C [8]: 94 % of control
T/C (dose: 5.0 mg/kg/injection, schedule: Q01DX009 (ip), vehicle: Klucel (hydroxypropylcellulose) (HPC)): 99 % of control
T/C (dose: 6.2 mg/kg/injection, schedule: Q01DX010 (ip), vehicle: carboxymethylcellulose (CMC)): 105 % of control
T/C (dose: 10.0 mg/kg/injection, schedule: Q01DX009 (ip), vehicle: Klucel (hydroxypropylcellulose) (HPC)): 101 % of control
T/C (dose: 12.5 mg/kg/injection, schedule: Q01DX010 (ip), vehicle: carboxymethylcellulose (CMC)): 90 % of control
T/C [9]: 105 % of control
T/C (dose: 25.0 mg/kg/injection, schedule: Q01DX010 (ip), vehicle: carboxymethylcellulose (CMC)): 100 % of control

CN(C)c1nc(NC(=O)NC(=O)c2c(F)cccc2F)nc(N(C)C)n1
T/C [10]: 88 % of control

O=C1NC2NC(=O)NC2N1 (configuration not stated)
T/C [2]: 100 % of control
T/C [4]: 100 % of control
T/C [6]: 104 % of control

Nc1ncnc2nc[nH]c12.[Cl][Pt][Cl]
T/C (dose: 100.0 mg/kg/injection, schedule: Q01DX009 (ip), vehicle: water): 114 % of control
T/C (dose: 100.0 mg/kg/injection, schedule: Q04DX003 (ip), vehicle: water): 93 % of control
T/C (dose: 200.0 mg/kg/injection, schedule: Q01DX009 (ip), vehicle: water): 118 % of control
T/C (dose: 200.0 mg/kg/injection, schedule: Q04DX003 (ip), vehicle: water): 98 % of control
T/C (dose: 400.0 mg/kg/injection, schedule: Q01DX009 (ip), vehicle: water): 104 % of control
T/C (dose: 400.0 mg/kg/injection, schedule: Q04DX003 (ip), vehicle: water): 98 % of control

CC(C)C(=O)[O][Sn]([CH3])([CH3])[CH3]
T/C (dose: 0.75 mg/kg/injection, schedule: Q01DX009 (ip), vehicle: saline): 100 % of control
T/C (dose: 1.5 mg/kg/injection, schedule: Q01DX009 (ip), vehicle: saline): 91 % of control

COc1ccc(OC)c2c1C(=O)c1ccccc1C2=O
T/C [10]: 100 % of control
T/C [7]: 105 % of control
T/C [1]: 90 % of control
T/C [3]: 106 % of control
T/C [5]: 103 % of control

CN(C)C=O.CN(C)C=O.[Cl][Sn]([Cl])([Cl])[Cl]
T/C (dose: 25.0 mg/kg/injection, schedule: Q01DX009 (ip), vehicle: Klucel (hydroxypropylcellulose) (HPC)): 100 % of control
T/C (dose: 50.0 mg/kg/injection, schedule: Q01DX009 (ip), vehicle: Klucel (hydroxypropylcellulose) (HPC)): 105 % of control
T/C (dose: 75.0 mg/kg/injection, schedule: Q04DX003 (ip), vehicle: Klucel (hydroxypropylcellulose) (HPC)): 109 % of control
T/C (dose: 100.0 mg/kg/injection, schedule: Q01DX009 (ip), vehicle: Klucel (hydroxypropylcellulose) (HPC)): 100 % of control
T/C (dose: 150.0 mg/kg/injection, schedule: Q04DX003 (ip), vehicle: Klucel (hydroxypropylcellulose) (HPC)): 86 % of control

CCN(CC)CC(C)Nc1ccc(C)c2sc3ccccc3c(=O)c12 (configuration not stated)
T/C (dose: 33.0 mg/kg/injection, schedule: Q04DX003 (ip), vehicle: saline sonified): 118 % of control
T/C (dose: 44.0 mg/kg/injection, schedule: Q01DX009 (ip), vehicle: saline): 159 % of control
T/C (dose: 66.0 mg/kg/injection, schedule: Q01DX009 (ip), vehicle: saline): 200 % of control and 209 % of control
T/C (dose: 100.0 mg/kg/injection, schedule: Q01DX009 (ip), vehicle: saline): 190 % of control
T/C (dose: 112.5 mg/kg/injection, schedule: Q04DX003 (ip), vehicle: saline sonified): 154 % of control
T/C (dose: 300.0 mg/kg/injection, schedule: Q04DX003 (ip), vehicle: saline sonified): 163 % of control

O=C1C=CC(=O)N1c1ccc(Cl)cc1
T/C (dose: 1.25 mg/kg/injection, schedule: Q04DX003 (ip), vehicle: Klucel (hydroxypropylcellulose) (HPC)): 114 % of control
T/C [8]: 159 % of control
T/C (dose: 2.5 mg/kg/injection, schedule: Q04DX003 (ip), vehicle: Klucel (hydroxypropylcellulose) (HPC)): 122 % of control
T/C (dose: 5.0 mg/kg/injection, schedule: Q04DX003 (ip), vehicle: Klucel (hydroxypropylcellulose) (HPC)): 108 % of control
T/C (dose: 10.0 mg/kg/injection, schedule: Q04DX003 (ip), vehicle: Klucel (hydroxypropylcellulose) (HPC)): 107 % of control
T/C [9]: 115 % of control

Cc1nc(N)[nH]c(=O)c1CCCNc1cccc(C(F)(F)F)c1
T/C (dose: 100.0 mg/kg/injection, schedule: Q01DX001 (ip), vehicle: Klucel (hydroxypropylcellulose) (HPC)): 100 % of control
T/C (dose: 200.0 mg/kg/injection, schedule: Q01DX001 (ip), vehicle: Klucel (hydroxypropylcellulose) (HPC)): 104 % of control
T/C (dose: 400.0 mg/kg/injection, schedule: Q01DX001 (ip), vehicle: Klucel (hydroxypropylcellulose) (HPC)): 104 % of control

COC(=O)c1c(Cl)c(Cl)c(C(=O)OC)c(Cl)c1Cl
T/C [10]: 100 % of control
T/C [7]: 100 % of control
T/C [1]: 86 % of control
T/C [2]: 91 % of control
T/C [4]: 108 % of control
T/C (dose: 266.0 mg/kg/injection, schedule: Q04DX003 (ip), vehicle: saline with Tween-80): 95 % of control
T/C [6]: 90 % of control
T/C (dose: 600.0 mg/kg/injection, schedule: Q04DX003 (ip), vehicle: saline with Tween-80): 100 % of control

Cc1cc(NC(=O)c2ccc(Cl)cc2)ccc1Cl
T/C (dose: 100.0 mg/kg/injection, schedule: Q01DX001 (ip), vehicle: saline with Tween-80): 100 % of control
T/C (dose: 200.0 mg/kg/injection, schedule: Q01DX001 (ip), vehicle: saline with Tween-80): 86 % of control
T/C (dose: 400.0 mg/kg/injection, schedule: Q01DX001 (ip), vehicle: saline with Tween-80): 95 % of control

C=CS(=O)(=O)c1ccccc1
T/C (dose: 18.0 mg/kg/injection, schedule: Q01DX009 (ip), vehicle: saline with Tween-80): 114 % of control
T/C (dose: 18.0 mg/kg/injection, schedule: Q04DX003 (ip), vehicle: saline with Tween-80): 90 % of control
T/C (dose: 24.0 mg/kg/injection, schedule: Q01DX009 (ip), vehicle: saline with Tween-80): 100 % of control
T/C (dose: 36.0 mg/kg/injection, schedule: Q01DX009 (ip), vehicle: saline with Tween-80): 116 % of control
T/C (dose: 36.0 mg/kg/injection, schedule: Q04DX003 (ip), vehicle: saline with Tween-80): 100 % of control
T/C (dose: 72.0 mg/kg/injection, schedule: Q01DX009 (ip), vehicle: saline with Tween-80): 114 % of control
T/C (dose: 72.0 mg/kg/injection, schedule: Q04DX003 (ip), vehicle: saline with Tween-80): 109 % of control

C=C1CC[N+]2(CC(C)C)CCCC12 (configuration not stated)
T/C (dose: 12.5 mg/kg/injection, schedule: Q04DX003 (ip), vehicle: saline): 107 % of control
T/C (dose: 25.0 mg/kg/injection, schedule: Q04DX003 (ip), vehicle: saline): 102 % of control
T/C (dose: 50.0 mg/kg/injection, schedule: Q04DX003 (ip), vehicle: saline): 106 % of control
